Results: patent US20040072907A1, “Antipicornaviral compounds, compositions containing them, and methods for their use” (priority 1997, published 2004)
Read-outs that look alike come from different tables or passages of the source.

Key:
HRV serotype 89 = test: Antirhinoviral HI-HeLa cell culture assay (XTT cell protection), HRV-89; assay type: cell-based, human rhinovirus; conditions: HRV serotype 89, HI-HeLa cells
Experimental: (§1) In the Cell Protection Assay, the ability of compounds to protect cells against HRV infection was measured by the XTT dye reduction method. This method is described in Weislow, O. S., Kiser, R., Fine, D. L., Bader, J., Shoemaker, R. H., Boyd, M. R., J. Natl. Cancer Inst. 1989, 81, 577-586, the disclosure of which is incorporated herein by reference.
(§2) Infected or mock-infected cells were resuspended at 8×10^5 cells per mL and incubated with appropriate concentrations of compounds of formula I. Two days later, XTT/PMS was added to test plates, and the amount of formazan produced was quantified spectrophotometrically at 450/650 nm. […] The therapeutic index (TI) was calculated by dividing the CC50 by the EC50.
(§3) All strains of human rhinovirus (HRV) for use in this assay were purchased from American Type Culture Collection (ATCC) except for HRV serotype-14, which was produced from the infectious cDNA clone constructed and supplied to Applicants by Dr. Robert Rueckert at the Institute for Molecular Virology, University of Wisconsin, Madison, Wis. HRV stocks were propagated, and viral assays were performed in HI-HeLa cells (ATCC). Cells were grown in Minimal Essential Medium, available from Life Technologies, with 10% fetal bovine serum.
(§4) The compounds were tested against control compounds WIN 51711, WIN 52084, and WIN 54954, all obtained from Sterling-Winthrop Pharmaceuticals, and control compound Pirodavir, obtained from Janssen Pharmaceuticals. Antiviral data obtained for the test compounds are shown in Table 2 where all data are for HRV serotype-14 unless otherwise noted in parentheses.

HI-HeLa cells = test: Cytotoxicity in mock-infected HI-HeLa cells (XTT, antirhinoviral assay); assay type: cell-based
Experimental: as §1, §2
HRV stocks were propagated, and viral assays were performed in HI-HeLa cells (ATCC). Cells were grown in Minimal Essential Medium, available from Life Technologies, with 10% fetal bovine serum.

HRV serotype-14 = test: Antirhinoviral HI-HeLa cell culture assay (XTT cell protection), HRV-14; assay type: cell-based, human rhinovirus; conditions: HRV serotype-14, HI-HeLa cells, m.o.i. 0.13, two days, XTT; read-out: EC50
Experimental: as §1, §2, §3, §4

HRV serotype 1A = test: Antirhinoviral HI-HeLa cell culture assay (XTT cell protection), HRV-1A; assay type: cell-based, human rhinovirus; conditions: HI-HeLa cells
Experimental: as §1, §2, §3, §4

[1] = molecular target: T1, Recombinant Rhinovirus 3C protease serotype 14 (Human rhinovirus 14, UniProt P03303); test: biochemical; conditions: RVP serotype-14; progress curves, enzyme start experiments
T1 construct: Recombinant Rhinovirus 3C proteases from serotypes 14, 16, and 2; made in house
Experimental: Stock solutions (50 mM, in DMSO) of various compounds were prepared; dilutions were in the same solvent. […] Assays contained 2% DMSO, 50 mM tris pH 7.6, 1 mM EDTA, a compound at the indicated concentrations, approximately 1 μM substrate, and 50-100 nM protease. […] The kobs/I values were obtained from reactions initiated by addition of enzyme rather than substrate. RVP activity is measured in the fluorescence resonance energy transfer assay. […] In the uncleavaed peptide, the EDANS fluorescence was quenched by the proximal DABCYL moiety. When the peptide was cleaved, the quenching was relieved, and activity was measured as an increase in fluorescence signal.
The data in the column designated kobs/I was measured from progress curves enzyme start experiments.

HRV serotype 10 = test: Antirhinoviral HI-HeLa cell culture assay (XTT cell protection), HRV-10; assay type: cell-based, human rhinovirus; conditions: HRV serotype 10, HI-HeLa cells
Experimental: as §1, §2, §3, §4

HRV serotype 39 = test: Antirhinoviral HI-HeLa cell culture assay (XTT cell protection), HRV-39; assay type: cell-based, human rhinovirus; conditions: HRV serotype 39, HI-HeLa cells
Experimental: as §1, §2, §3, §4

HRV serotype 16 = test: Antirhinoviral HI-HeLa cell culture assay (XTT cell protection), HRV-16; assay type: cell-based, human rhinovirus; conditions: HRV serotype 16, HI-HeLa cells
Experimental: as §1, §2, §3, §4

[2] = mock-infected HI-HeLa cells, line for HRV serotype 1A, read-out: CC50
[3] = mock-infected HI-HeLa cells, line for HRV serotype 2, read-out: CC50
[4] = mock-infected HI-HeLa cells, line for HRV serotype 10, read-out: CC50
[5] = mock-infected HI-HeLa cells, line for HRV serotype 16, read-out: CC50
[6] = mock-infected HI-HeLa cells, line for HRV serotype 39, read-out: CC50
[7] = mock-infected HI-HeLa cells, line for HRV serotype 89, read-out: CC50
[8] = mock-infected HI-HeLa cells, line for HRV serotype-14, read-out: CC50

T1 sequence (P03303 1538-1719): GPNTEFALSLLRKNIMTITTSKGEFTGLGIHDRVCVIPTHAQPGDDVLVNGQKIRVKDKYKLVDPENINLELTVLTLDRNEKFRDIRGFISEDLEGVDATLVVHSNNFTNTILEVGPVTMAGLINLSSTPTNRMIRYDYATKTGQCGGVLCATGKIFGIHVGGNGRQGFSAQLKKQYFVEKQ

Row | EC50 (HRV serotype 39) [nM] | Compound | CC50 (HI-HeLa cells; [2]) [nM] | CC50 (HI-HeLa cells; [3]) [nM] | CC50 (HI-HeLa cells; [4]) [nM] | CC50 (HI-HeLa cells; [5]) [nM] | CC50 (HI-HeLa cells; [6]) [nM] | CC50 (HI-HeLa cells; [7]) [nM] | CC50 (HI-HeLa cells; [8]) [nM] | EC50 (HRV serotype-14) [nM] | kobs/I [1] | further results
1 | – | CCOC(=O)/C=C/C(CCC(N)=O)NC(=O)C(CC(=O)C(NC(=O)SC1CCCC1)C(C)C)Cc1ccc(F)cc1 (stereo not drawn) [Compound 14] | > 10000 | > 10000 | > 10000 | > 10000 | > 10000 | > 10000 | > 10000 | 20 | – | EC50 (HRV serotype 89): 80 nM; EC50 (HRV serotype 1A): 170 nM
2 | – | CCOC(=O)/C=C/[C@H](CCC(N)=O)NC(=O)[C@@H](CC(=O)[C@@H](NC(=O)SCC)C(C)C)Cc1ccc(C(F)(F)F)cc1 [Compound 15, Ethyl-3-(EtSCO-L-ValΨ[COCH2]-L-(p-CF3)Phe-L-Gln)-E-Propenoate] | – | – | – | – | – | – | > 1000 | 63 | 127,000 M^−1sec^−1 | –
3 | 200 | CCOC(=O)/C=C/C(CCC(N)=O)NC(=O)C(CC(=O)C(NC(=O)SC1CCCC1)C(C)C)Cc1ccc(C(F)(F)F)cc1 [Compound 16, Ethyl-3-(CyPentylSCO-L-ValΨ[COCH2]-L-(p-CF3)Phe-L-Gln)-E-Propenoate] | > 3000 | > 3000 | > 3000 | > 3000 | > 3000 | > 3000 | > 3000 | 50 | – | EC50 (HRV serotype 89): 80 nM; EC50 (HRV serotype 10): 150 nM
4 | – | CCOC(=O)/C=C/C(CCC(N)=O)NC(=O)C(CC(=O)C(Cc1ccccc1)NC(=O)SC1CCCC1)Cc1ccc(F)cc1 [Compound 18, Ethyl-3-(CyPentylSCO-L-PheΨ[COCH2]-L-(p-F)Phe-L-Gln)-E-Propenoate] | – | – | – | – | – | – | > 3000 | 480 | 127,400 M^−1sec^−1 | –
5 | 400 | CCOC(=O)/C=C/C(CCC(N)=O)NC(=O)C(CC(=O)C(NC(=O)SC1CCCC1)C(C)(C)C)Cc1ccccc1 [Compound 22, Ethyl-3-(CyPentylSCO-L-tert-LeuΨ[COCH2]-L-Phe-L-Gln)-E-Propenoate] | > 32000 | > 32000 | > 32000 | > 32000 | > 32000 | > 32000 | > 32000 | 50 | – | EC50 (HRV serotype 16): 400 nM; EC50 (HRV serotype 1A): 430 nM
6 | – | CCOC(=O)/C=C/C(CCC(N)=O)NC(=O)C(CC(=O)C(NC(=O)CC1CCCC1)C(C)C)Cc1ccc(C)cc1 (stereo not drawn) [Compound 23] | – | – | – | – | – | – | – | 20900 | 36,500 M^−1sec^−1 | CC50 (HI-HeLa cells): > 10000 nM
7 | – | Cc1cc(CCCCCCCOc2ccc(C3=NCCO3)cc2)on1 [WIN 51711, reference compound] | – | – | – | – | – | – | > 60000 | 780 | – | –
8 | – | Cc1cc(CCCCCCCOc2ccc(C3=N[C@@H](C)CO3)cc2)on1 [WIN 52084, reference compound] | – | – | – | – | – | – | > 10000 | 70 | – | –
9 | – | Ethyl-3-(CyPentylSCO-L-CyhexΨ[COCH2]-L-(p-F)Phe-L-Gln)-E-Propenoate [Compound 24] | – | – | – | – | – | – | > 3000 | – | – | –

Row | Compound | EC50 (HRV serotype 39) [nM] | CC50 (HI-HeLa cells; [2]) [nM] | CC50 (HI-HeLa cells; [3]) [nM] | CC50 (HI-HeLa cells; [4]) [nM] | CC50 (HI-HeLa cells; [5]) [nM] | CC50 (HI-HeLa cells; [6]) [nM] | CC50 (HI-HeLa cells; [7]) [nM] | CC50 (HI-HeLa cells; [8]) [nM] | EC50 (HRV serotype-14) [nM] | kobs/I [1] | further results
10 | CC(=O)N1CC/C(=C\C(CCC(N)=O)NC(=O)C(CC(=O)C(NC(=O)SC2CCCC2)C(C)C)Cc2ccc(C)cc2)C1=O [Compound 17, [CyPentylSCO-L-ValΨ[COCH2]-L-(p-CH3)Phe-L-Gln]-E-1-Acetyl-3-methylene-pyrrolidin-2-one] | 480 | – | > 10000 | – | – | > 10000 | – | > 10000 | 27 | – | –
